Data published in US20170121344A1 (Siga Technologies, Inc., priority 2009, published 2017).
Where two headings read alike, the source gives them in different places.

How the values were obtained:
[1] = tested on: Dengue-2 (Strain New Guinea C); assay: Viral yield assay against Dengue-2 in Vero cells; assay type: cell-based, Dengue virus; conditions: Dengue virus, read-out: Activity (EC50 in μM) DENV-2
Procedure, shortened: (§1)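 Virus yield, titered on Vero cells from cultures harvested at 48 h post infection, gave the EC50. Cultures were infected at MOI 0.1 with dengue-2 and treated with compound or DMSO at 37° C. DENV-1 and DENV-4 were determined similarly.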

DENV-1 = assay: Viral yield assay against DENV-1 in Vero cells; assay type: cell-based; conditions: Dengue virus
Procedure, shortened: as §1

DENV-3 = assay: Viral yield assay against DENV-3 in Vero cells; assay type: cell-based; conditions: Dengue virus
Procedure, shortened: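 Infect Vero cells with virus (MOI 0.1), add compound or DMSO, incubate at 37° C, collect progeny at 48 hours post infection, then titrate on Vero cells to obtain EC50.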

DENV-4 = assay: Viral yield assay against DENV-4 in Vero cells; assay type: cell-based; conditions: Dengue virus
Procedure, shortened: as §1

[2] = DENV2, viral yield assay, Vero cells, MOI 0.1, 48 hours post infection

Measured: EC50

Nc1c(C(=O)Nc2ccc(OC(F)(F)F)cc2)sc2nc(-c3cccc(OC(F)(F)F)c3)ccc12 [Compound 332, 3-amino-6-[3-(trifluoromethoxy)phenyl]-N-[4-(trifluoromethoxy)phenyl]thieno[2,3-b]pyridine-2-carboxamide]
< 5 µM: [1]; [2] | DENV-1; DENV1, viral yield assay | DENV-3; DENV3, viral yield assay | DENV-4; DENV4, viral yield assay

Nc1c(C(=O)/N=c2\[nH]c3ccccc3s2)sc2nc(-c3cccs3)ccc12 [Compound 486, (NE)-3-amino-N-(3H-1,3-benzo-thiazol-2-ylidene)-6-(2-thienyl)thieno [2,3-b]pyridine-2-carboxamide]
< 5 µM: [1]; DENV2, Vero, 48 h | DENV-1; DENV1, viral yield assay | DENV-3; DENV3, viral yield assay | DENV-4; DENV4, viral yield assay

Nc1c(C(=O)Nc2ccccc2Br)sc2nc(-c3ccc(Cl)cc3)ccc12 [Compound 341, 3-amino-N-(2-bromophenyl)-6-(4-chlorophenyl) thieno[2,3-b] pyridine-2-carboxamide]
< 5 µM: [1]; [2] | DENV-1; DENV1, viral yield assay | DENV-3; DENV3, viral yield assay | DENV-4; DENV4, viral yield assay

Nc1c(C(=O)Nc2ccc(C(F)(F)F)cc2)sc2nc(-c3ccncc3)ccc12 [Compound 465, 3-amino-6-(4-pyridyl)-N-[4-(trifluoromethyl)phenyl]thieno[2,3-b] pyridine-2-carboxamide]
< 5 µM: [1]; [2] | DENV-1; DENV1, viral yield assay | DENV-3; DENV3, viral yield assay | DENV-4; DENV4, viral yield assay

Nc1c(C(=O)Nc2ccc(Cl)c(Cl)c2)sc2nc(-c3cccs3)ccc12 [Compound 413, 3-amino-N-(3,4-dichlorophenyl)-6-(2-thienyl)thieno[2,3-b]pyridine-2-carboxamide]
< 5 µM: [1]; [2] | DENV-1; DENV1, viral yield assay | DENV-3; DENV3, viral yield assay | DENV-4; DENV4, viral yield assay

NCCNc1c(C(=O)Nc2cccc(C(F)(F)F)c2)sc2nc(-c3cccs3)ccc12 [Compound 304, 3-(2-aminoethylamino)-6-(2-thienyl)-N-[3-(trifluoromethyl)phenyl]thieno[2,3-b]pyridine-2-carboxamide]
< 5 µM: [1]; DENV2, Vero cells | DENV-1; DENV1 | DENV-3; DENV3 | DENV-4; DENV4

COc1ccc(-c2ccc3c(N)c(C(=O)Nc4ccc(C)cc4Br)sc3n2)cc1OC [Compound 576, 3-amino-N-(2-bromo-4-methyl-phenyl)-6-(3,4-dimethoxyphenyl)thieno[2,3-b] pyridine-2-carboxamide]
< 5 µM: [1]; [2] | DENV-1; DENV1, viral yield assay | DENV-3; DENV3, viral yield assay | DENV-4; DENV4, viral yield assay

COc1ccc(-c2ccc3c(N)c(C(=O)Nc4ccc(Br)c(C(F)(F)F)c4)sc3n2)cc1OC [Compound 583, 3-amino-N-[4-bromo-3-(trifluoromethyl)phenyl]-6-(3,4-dimethoxyphenyl)thieno [2,3-b]pyridin-2-carboxamide]
< 5 µM: [1]; [2] | DENV-1; DENV1, viral yield assay | DENV-3; DENV3, viral yield assay | DENV-4; DENV4, viral yield assay

Nc1c(C(=O)Nc2ccc(Cl)cc2)sc2nc(-c3ccc(Cl)cc3)ccc12 [Compound 333, 3-amino-N,6-bis(4-chlorophenyl)thieno [2,3-b]pyridine-2-carboxamide]
< 5 µM: [1]; [2] | DENV-1; DENV1, viral yield assay | DENV-3; DENV3, viral yield assay | DENV-4; DENV4, viral yield assay

Nc1c(C(=O)N(CCC(=O)O)c2ccc(Br)cc2)sc2nc(-c3ccc(Cl)cc3)ccc12 [Compound 350, 3-(N-[3-amino-6-(4-chloro-phenyl)thieno [2,3-b]pyridine-2-carbonyl]-4-bromoanilino) propanoic acid]
< 5 µM: [1]; [2] | DENV-1; DENV1, viral yield assay | DENV-3; DENV3, viral yield assay | DENV-4; DENV4, viral yield assay

CCOC(=O)CCC(=O)Nc1c(C(=O)Nc2cccc(C(F)(F)F)c2)sc2nc(-c3cccs3)ccc12 [Compound 310, Ethyl 4-oxo-4-[[6-(2-thienyl)-2-[[3-(trifluoromethyl)phenyl]carbamoyl]thieno[2,3-b]pyridin-3-yl]amino]butanoate]
< 5 µM: [1]; DENV2, Vero cells | DENV-1; DENV1 | DENV-3; DENV3 | DENV-4; DENV4

Nc1c(C(=O)Nc2cc(Cl)ccc2Cl)sc2nc(-c3cccs3)ccc12 [Compound 433, 3-amino-N-(2,5-dichlorophenyl)-6-(2-thienyl)thieno[2,3-b]pyridine-2-carboxamide]
< 5 µM: [1]; [2] | DENV-1; DENV1, viral yield assay | DENV-3; DENV3, viral yield assay | DENV-4; DENV4, viral yield assay

O=C(Nc1c(C(=O)Nc2nnc(-c3ccccc3)s2)sc2nc3c(cc12)CCCCC3)c1cccnc1 [Compound 297, 3-(nicotinamido)-N-(5-phenyl-1,3,4-thiadiazol-2-yl)-6,7,8,9-tetrahydro-5H-cyclohepta[b]thieno[3,2-e]pyridine-2-carboxamide]
< 5 µM: [1]; DENV2, Vero cells | DENV-1; DENV1 | DENV-3; DENV3 | DENV-4; DENV4

Nc1c(C(=O)Nc2cc(F)ccc2F)sc2nc(-c3cccs3)ccc12 [Compound 470, 3-amino-N-(2,5-difluorophenyl)-6-(2-thienyl)thieno[2,3-b]pyridine-2-carboxamide]
< 5 µM: [1]; DENV2, Vero, 48 h | DENV-1; DENV1, viral yield assay | DENV-3; DENV3, viral yield assay | DENV-4; DENV4, viral yield assay

Nc1c(C(=O)Nc2ccccc2C(F)(F)F)sc2nc(-c3cccs3)ccc12 [Compound 437, 3-amino-6-(2-thienyl)-N-[2-(trilfuoromethyl)phenyl]thieno[2,3-b] pyridine-2-carboxamide]
< 5 µM: [1]; [2] | DENV-1; DENV1, viral yield assay | DENV-3; DENV3, viral yield assay | DENV-4; DENV4, viral yield assay

CCC(C)c1ccc(NC(=O)c2sc3nc(-c4cccc(OC)c4)ccc3c2N)cc1 (stereo not shown) [Compound 555, 3-amino-6-(3-methoxyphenyl)-N-(4-sec-butylphenyl)thieno[2,3-b]pyridine-2-carboxamide]
< 5 µM: [1]; [2] | DENV-1; DENV1, viral yield assay | DENV-3; DENV3, viral yield assay | DENV-4; DENV4, viral yield assay

Nc1c(C(=O)Nc2ccc(F)c(F)c2)sc2nc(-c3ccc4c(c3)OCO4)ccc12 [Compound 597, 3-amino-6-(1,3-benzodioxol-5-yl)-N-(3,4-difluorophenyl)thieno[2,3-b]pyridine-2-carboxamide]
< 5 µM: [1]; DENV2, Vero, 48 h | DENV-1; DENV1, viral yield assay | DENV-3; DENV3, viral yield assay | DENV-4; DENV4, viral yield assay

COc1ccc(-c2ccc3c(N)c(C(=O)Nc4ccc(C)c(F)c4)sc3n2)cc1OC [Compound 533, 3-amino-6-(3,4-dimethoxyphenyl)-N-(3-fluoro-4-methyl-phenyl)thieno[2,3-b] pyridine-2-carboxamide]
< 5 µM: [1]; [2] | DENV-1; DENV1, viral yield assay | DENV-3; DENV3, viral yield assay | DENV-4; DENV4, viral yield assay

Cc1cccc2cc3c(N)c(C(=O)Nc4cccc(C(F)(F)F)c4)sc3nc12 [Compound 364, 3-amino-8-methyl-N-(3-(trifluoromethyl)phenyl)thieno [2,3-b]quinoline-2-carboxamide]
< 5 µM: [1]; [2] | DENV-1; DENV1, viral yield assay | DENV-3; DENV3, viral yield assay | DENV-4; DENV4, viral yield assay

CN(C)CC(=O)Nc1c(C(=O)Nc2ccc(OC(F)(F)F)cc2)sc2nc3c(cc12)CN(C)CC3 [Compound 312, 3-[[2-(dimethylamino)acetyl]amino]-6-methyl-N-[4-(trifluoromethoxy)phenyl]-7,8-dihydro-5H-thieno[2,3-b][1,6]naphthyridine-2-carboxamide]
< 5 µM: [1]; DENV2, Vero cells | DENV-1; DENV1 | DENV-3; DENV3 | DENV-4; DENV4

COc1ccc(-c2ccc3c(N)c(C(=O)Nc4cccc(Br)c4)sc3n2)cc1 [Compound 454, 3-amino-N-(3-bromophenyl)-6-(4-methoxyphenyl)thieno[2,3-b]pyridine-2-carboxamide]
< 5 µM: [1]; [2] | DENV-1; DENV1, viral yield assay | DENV-3; DENV3, viral yield assay | DENV-4; DENV4, viral yield assay

Nc1c(C(=O)Nc2ccc(Cl)cc2F)sc2nc(-c3ccc(F)cc3)ccc12 [Compound 617, 3-amino-N-(4-chloro-2-fluoro-phenyl)-6-(4-fluorophenyl)thieno[2,3-b]pyridine-2-carboxamide]
< 5 µM: [1]; [2] | DENV-1; DENV1, viral yield assay | DENV-3; DENV3, viral yield assay | DENV-4; DENV4, viral yield assay

COc1ccc(-c2ccc3c(N)c(C(=O)Nc4ccc(Cl)cc4)sc3n2)cc1 [Compound 493, 3-amino-N-(4-chlorophenyl)-6-(4-methoxyphenyl)thieno[2,3-b]pyridine-2-carboxamide]
< 5 µM: [1]; [2] | DENV-1; DENV1, viral yield assay | DENV-3; DENV3, viral yield assay | DENV-4; DENV4, viral yield assay

Cc1ccc(NC(=O)c2sc3nc(-c4cccs4)ccc3c2N)cc1C [Compound 414, 3-amino-N-(3,4-dimethylphenyl)-6-(2-thienyl)thieno[2,3-b]pyridine-2-carboxamide]
< 5 µM: [1]; [2] | DENV-1; DENV1, viral yield assay | DENV-3; DENV3, viral yield assay | DENV-4; DENV4, viral yield assay

Cc1ccc(-c2ccc3c(N)c(C(=O)Nc4ccccc4Cl)sc3n2)cc1 [Compound 650, 3-amino-N-(2-chlorophenyl)-6-(p-tolyl) thieno[2,3-b]pyridine-2-carboxamide]
< 5 µM: [1]; [2] | DENV-1; DENV1, viral yield assay | DENV-3; DENV3, viral yield assay | DENV-4; DENV4, viral yield assay

COc1cccc(-c2ccc3c(N)c(C(=O)Nc4ccc(C)c(C)c4)sc3n2)c1 [Compound 546, 3-amino-N-(3,4-dimethylphenyl)-6-(3-methoxyphenyl)thieno[2,3-b]pyridine-2-carboxamide]
< 5 µM: [1]; [2] | DENV-1; DENV1, viral yield assay | DENV-3; DENV3, viral yield assay | DENV-4; DENV4, viral yield assay

CCCCSc1nc2ccc(NC(=O)c3sc4nc(-c5cccc(OC)c5)ccc4c3N)cc2s1 [Compound 570, 3-amino-N-(2-butylsulfanyl-1,3-benzo-thiazol-6-yl)-6-(3-methoxyphenyl)thieno [2,3-b]pyridine-2-carboxamide]
< 5 µM: [1]; [2] | DENV-1; DENV1, viral yield assay | DENV-3; DENV3, viral yield assay | DENV-4; DENV4, viral yield assay

Nc1c(C(=O)Nc2ccc(Cl)cc2F)sc2nc(-c3ccc4c(c3)OCO4)ccc12 [Compound 598, 3-amino-6-(1,3-benzodioxol-5-yl)-N-(4-chloro-2-fluoro-phenyl)thieno[2,3-b] pyridine-2-carboxamide]
< 5 µM: [1]; [2] | DENV-1; DENV1, viral yield assay | DENV-3; DENV3, viral yield assay | DENV-4; DENV4, viral yield assay
